Measurements published in the supplement of paper PMC10949913.

Key:
Assay in all cases: area under concentration-response curve (viability) (AUC (a.u.)); higher = less active
Conditions in all cases: 48 h
CU-ACC1 = system: CU-ACC1
How it was run: (§1)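 Concentration-response curves were fitted to obtain AC50 and area under the curve, keeping inhibitory or non-responding curve classes only. Data came from CellTiter-Glo luminescence, normalised per plate to vehicle and empty-well controls, in three adrenocortical carcinoma cell lines. These were treated in 1,536-well plates with library compounds at 11 concentrations and read after 48 h.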

CU-ACC2 = system: CU-ACC2
How it was run: as §1

NCI-H295R = system: NCI-H295R
How it was run: as §1

Compound | area under concentration-response curve (CU-ACC1) | area under concentration-response curve (CU-ACC2) | area under concentration-response curve (NCI-H295R)
CN1C(=O)C(Cc2c[nH]c3ccccc23)NC1=S (stereo not given) | 543 | 639 | 568
O=C1CCCC(=O)C1C(=O)c1ccc(C(F)(F)F)cc1[N+](=O)[O-] | 565 | 576 | 545
CCOC(=O)/C=C/[C@H](C[C@@H]1CCNC1=O)NC(=O)[C@@H](CC(=O)[C@@H](NC(=O)c1cc(C)on1)C(C)C)Cc1ccc(F)cc1 | 530 | 523 | 539
NCCc1c[nH]cn1 | 416 | 605 | 548
N#C[C@@H]1C[C@@H]2C[C@@H]2N1C(=O)[C@@H](N)C12CC3CC(CC(O)(C3)C1)C2 | 500 | 598 | 517
CC(=O)Nc1nc(C)c(-c2ccc(Cl)c([S+](=O)([O-])NCCO)c2)s1 | 385 | 566 | 531
C[C@H]1COC2=C3N1\C=C(C(O)=O)/C(=O)C3=CC(=C2N4CCN(C)CC4)F | 522 | 650 | 595
N#Cc1c(N(CC(=O)[O-])CC(=O)[O-])sc(C(=O)[O-])c1CC(=O)[O-] | 478 | 544 | 497
O=C1NC(=O)/C(=C/c2ccc3c(c2)OC(F)(F)O3)S1 | 512 | 599 | 537
CO[C@H]1O[C@@H]2O[C@@]3(C)CC[C@H]4[C@H](C)CC[C@@H]([C@H]1C)[C@@]24OO3 | 470 | 553 | 506
CC(C)(C)C(=O)Oc1ccc2c(c1)nc(NC(=O)c1cccc([N+](=O)[O-])c1)n2CCCO | 506 | 584 | 525
CC1=CC=C(C=C1)\C2=N\C3=CC=C(Cl)C=C3OC2 | 504 | 613 | 546
CC12CC3CC(C)(C1)CC(N)(C3)C2 | 437 | 431 | 457
C[C@@H]1C\C2=C(CCC(=O)C2)/[C@H]3CC[C@@]4(C)[C@@H](CC[C@@]4(O)C#C)[C@H]13 | 560 | 592 | 547
COC1=C2OC(=O)\C=C/C2=CC3=C1OC=C3 | 420 | 482 | 475
Nc1nccn2c1c(-c1cc3cccc(Cl)c3[nH]1)nc2[C@H]1CC[C@H](C(=O)O)CC1 | 498 | 589 | 536
Cc1cccc(-c2nn3c(c2-c2ccnc4ccc(C(N)=O)cc24)CCC3)n1 | 546 | 628 | 575
O=C1\C=C(OC2=C(C=CC=C12)C3=CC=CC4=C3SC5=C4C=CC=C5)\N6CCOCC6 | 374 | 557 | 497
COc1cc(C[C@@H](CO)[C@H](CO)Cc2ccc(O)c(OC)c2)ccc1O | 534 | 575 | 517
O=C(CO)N1CCC(c2n[nH]c(-c3ccc(Cl)cc3)c2-c2ccncn2)CC1 | 520 | 454 | 515
